Source: US20230119479A1, “A HISTONE DEACETYLASE INHIBITOR HAVING A NITROGEN-CONTAINING AROMATIC HETEROCYCLYL GROUP” (SHIONOGI & CO., LTD., priority 2019, published 2023)

Columns and labels:
[1] = target: T1, HDAC2 Human recombinant C-terminal FLAG-tag (Homo sapiens, UniProt Q92769); experiment: Measurement of HDAC2 enzyme inhibitory activity (HTRF); format: biochemical; details: recombinant HDAC2, H3K9ac peptide, 3 hours room temperature; read-out: HDAC2 IC50
T1 construct: FLAG (C); purchased BPS Bioscience 50052
T1 sequence (Q92769 whole entry): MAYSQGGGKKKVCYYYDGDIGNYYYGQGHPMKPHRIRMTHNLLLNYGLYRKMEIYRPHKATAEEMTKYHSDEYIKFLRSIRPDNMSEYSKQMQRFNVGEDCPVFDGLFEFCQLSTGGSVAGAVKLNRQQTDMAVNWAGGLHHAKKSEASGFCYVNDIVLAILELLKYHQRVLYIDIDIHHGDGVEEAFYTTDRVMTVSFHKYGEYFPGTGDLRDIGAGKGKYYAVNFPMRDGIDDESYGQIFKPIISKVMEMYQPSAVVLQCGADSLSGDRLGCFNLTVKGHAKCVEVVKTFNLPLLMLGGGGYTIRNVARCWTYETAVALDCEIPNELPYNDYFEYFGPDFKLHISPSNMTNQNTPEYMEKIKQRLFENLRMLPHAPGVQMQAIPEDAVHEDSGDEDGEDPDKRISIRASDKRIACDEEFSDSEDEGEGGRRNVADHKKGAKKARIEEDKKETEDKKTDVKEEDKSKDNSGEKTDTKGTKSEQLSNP
Outline: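 Compounds were tested at 8 points in 3-fold dilutions from 99 μM final (n=2) against FLAG-tagged HDAC2 with biotinylated H3K9ac (1-21) peptide (0.6 μM as added). The reaction ran 3 h at room temperature in Tris pH 8.0 buffer, then was stopped with SAHA. Deacetylated product was detected by HTRF (Eu-anti-H3K9me0 antibody, streptavidin-XL665) as the 665/615-620 nm ratio.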

[2] = tested on: HDACs other than HDAC2 (HDAC2 knockout K562 cells); experiment: Evaluation of HDAC2 selectivity: H3K9 histone acetylation in HDAC2 knockout K562 cells (AlphaLISA); format: cell-based; details: Homo sapiens, maximum concentration 83.3 μM, 100% = SAHA-treated group, read-out: maximum inhibition rate (H3K9 histone acetylation);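 further: 0% inhibition equals DMSO-treated group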
Procedure: Test Example 3: Evaluation of HDAC2 Selectivity
K562 cells were cultured in RPMI1640 medium (SIGMA, R8758) containing 10% FBS (Hyclone, SH30070.03) and 1% penicillin streptomycin (Nacalai Tesque, 26252-94). CompoZr (registered trademark) Zinc Finger Nuclease (Merck) targeting HDAC2 sequences was transfected into K562 cells by electroporation using Nucleofector (Lonza). The cells after transfection were subjected to limiting dilution, and DNA sequencing was performed on the cell clones in which mutations were detected by the PCR method. Cell clones lacking a base number that was not a multiple of 3 in both alleles were identified, and a single-cell cloning was performed on the cell clones to produce HDAC2 knockout K562 cells. It was confirmed that the expression of HDAC2 was not detected by Western blotting in the prepared cells.
By evaluating the H3K9 histone acetylation-enhancing activity of the test compound using HDAC2 knockout K562 cells, the inhibitory activity against HDACs other than HDAC2 was evaluated.
HDAC2 knockout K562 cells stored in liquid nitrogen were thawed and cultured in RPMI1640 medium (Nacalai Tesque, 30264-85) for 2 to 4 days. Using Echo555 (Beckman Coulter), the test compound was dispensed to the assay plate (Corning, 4513) at 37.5 nL/well, and then HDAC2 knockout K562 cells were seeded to 125 cells/4.5 μL/well, and stirred. At this time, the test compound was treated at 8 points (n=2) in the 3-fold dilution series from the maximum concentration of 83.3 μM. After culturing at 37° C. and 5% CO2 overnight, 1.5 μL/well of Lysis buffer (PerkinElmer, AL009F1) was added, and after incubating at room temperature for 15 minutes, 3 μL/well of Extraction buffer (PerkinElmer, AL009F2) was added and the mixture was incubated for 10 minutes at room temperature. Then, 5× antibody solution (prepared by diluting anti-H3K9 Acceptor beads (PerkinElmer, AL114M) 75-fold with a detection buffer prepared by diluting 10×Cell-Histone Detection buffer (PerkinElmer, AL009F3) 10-fold with ultrapure water, and diluting Biotinylated anti H3 antibody (PerkinElmer, AL118M) diluted 150 times with the detection buffer) was added at 3 μL/well, and after incubating at room temperature for 60 minutes, then 5× donor beads solution (prepared by diluting Streptavidin Donor beads (PerkinElmer, 6760002) 75 fold with the detection buffer) was added at 3 μL/well, and the mixture was incubated again at room temperature for 60 minutes, and then the emission value was measured using PHERAstar (BMG LABTECH) (excitation=680 nm, […]). […] For cell toxicity, cell viability rate was evaluated by the PrestoBlue method.

Row | SMILES | IC50 [1] | inhibition at up to 83.3 µM [2]
1 | Cn1cc(-c2cnc(C(=O)Nc3nc(-c4cccs4)ccc3N)cn2)cn1 [Compound I-017] | 220 nM | 5%
2 | Cn1cc(-c2cnc(C(=O)Nc3nc(-n4cccc4)ccc3N)cn2)cn1 [Compound I-023] | 180 nM | 8%
3 | N#Cc1ccc(C(=O)Nc2cc(-c3ccc(F)nc3)ccc2N)nc1 [Compound I-092] | 250 nM | 6%
4 | C[C@H](F)COc1cnc(C(=O)Nc2cc(-c3ccc(F)nc3)ccc2N)cn1 (racemic) [Compound I-125] | 180 nM | 6%

These reach a lower IC50 [1]. Values come first.

Row | IC50 [1] | SMILES | inhibition at up to 83.3 µM [2]
5 | 140 nM | Cn1cc(-c2ccc(N)c(NC(=O)c3cnc(C4CC4)cn3)c2)cn1 [Compound I-130] | 
6 | 48 nM | Cn1cc(-c2cnc(C(=O)Nc3cc(-c4ccc(F)nc4)ccc3N)cn2)cn1 [Compound I-080] | 7%
7 | 140 nM | CCOc1cnc(C(=O)Nc2cc(-c3ccc(F)nc3)ccc2N)cn1 [Compound I-118] | 8%
